Experimental data taken from PubChem BioAssay (NCI).
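In this assay, cells in 96-well plates receive the compound at five concentrations for 48 hours. Endpoints are linearly interpolated between the surrounding concentrations. GI50 marks 50% less growth. Definition used: TGI = concentration required for complete inhibition of growth.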

Tests used:
Assay in all cases: NCI tumour cell line growth inhibition, 48 h
SNB-75 CNS = test system: SNB-75 CNS
BT-549 breast = test system: BT-549 breast
DU-145 prostate = test system: DU-145 prostate
SW-620 colon = test system: SW-620 colon
HCT-15 colon = test system: HCT-15 colon
K-562 leukemia = test system: K-562 leukemia
U251 CNS = test system: U251 CNS
OVCAR-3 ovarian = test system: OVCAR-3 ovarian
HT29 colon = test system: HT29 colon
IGROV1 ovarian = test system: IGROV1 ovarian
COLO 205 colon = test system: COLO 205 colon
HCT-116 colon = test system: HCT-116 colon
MDA-MB-435 = test system: MDA-MB-435
UO-31 renal = test system: UO-31 renal
HL-60(TB) leukemia = test system: HL-60(TB) leukemia
HS 578T breast = test system: HS 578T breast
RPMI-8226 leukemia = test system: RPMI-8226 leukemia
ACHN renal = test system: ACHN renal
SK-MEL-28 melanoma = test system: SK-MEL-28 melanoma
T-47D breast = test system: T-47D breast
OVCAR-5 ovarian = test system: OVCAR-5 ovarian
SN12C renal = test system: SN12C renal
NCI-H522 lung = test system: NCI-H522 lung
786-0 renal = test system: 786-0 renal
SK-MEL-5 melanoma = test system: SK-MEL-5 melanoma
SK-OV-3 ovarian = test system: SK-OV-3 ovarian
MDA-MB-231 breast = test system: MDA-MB-231 breast
SNB-19 CNS = test system: SNB-19 CNS
M14 melanoma = test system: M14 melanoma
TK-10 renal = test system: TK-10 renal
OVCAR-4 ovarian = test system: OVCAR-4 ovarian
CCRF-CEM leukemia = test system: CCRF-CEM leukemia
OVCAR-8 ovarian = test system: OVCAR-8 ovarian
A498 renal = test system: A498 renal
MCF7 breast = test system: MCF7 breast
RXF 393 renal = test system: RXF 393 renal
UACC-62 melanoma = test system: UACC-62 melanoma
NCI/ADR-RES ovarian = test system: NCI/ADR-RES ovarian
PC-3 prostate = test system: PC-3 prostate
LOX IMVI melanoma = test system: LOX IMVI melanoma
SF-295 CNS = test system: SF-295 CNS
HOP-62 NSCLC = test system: HOP-62 NSCLC
SK-MEL-2 melanoma = test system: SK-MEL-2 melanoma
EKVX NSCLC = test system: EKVX NSCLC
SF-268 CNS = test system: SF-268 CNS
HOP-92 NSCLC = test system: HOP-92 NSCLC
NCI-H23 lung = test system: NCI-H23 lung
MALME-3M melanoma = test system: MALME-3M melanoma
SR leukemia = test system: SR leukemia
CAKI-1 renal = test system: CAKI-1 renal
KM12 colon = test system: KM12 colon
NCI-H226 lung = test system: NCI-H226 lung
SF-539 CNS = test system: SF-539 CNS
MOLT-4 leukemia = test system: MOLT-4 leukemia
HCC-2998 colon = test system: HCC-2998 colon
A549 NSCLC = test system: A549 NSCLC
NCI-H460 lung = test system: NCI-H460 lung
UACC-257 melanoma = test system: UACC-257 melanoma

Cc1cc(-c2ccc(C3C(C#N)=C(N)Oc4c3c(=O)oc3ccccc43)cc2)cnc1F (stereo unspecified)
GI50 (SNB-75 CNS): 22.4 µM
TGI (SNB-75 CNS): > 100 µM
GI50 (BT-549 breast): 23.9 µM
TGI (BT-549 breast): > 100 µM
GI50 (DU-145 prostate): 49 µM
TGI (DU-145 prostate): > 100 µM
GI50 (SW-620 colon): 85.3 µM
TGI (SW-620 colon): > 100 µM
GI50 (HCT-15 colon): 42.3 µM
TGI (HCT-15 colon): > 100 µM
GI50 (K-562 leukemia): 35 µM
TGI (K-562 leukemia): > 100 µM
GI50 (U251 CNS): > 100 µM
TGI (U251 CNS): > 100 µM
GI50 (OVCAR-3 ovarian): 33.9 µM
TGI (OVCAR-3 ovarian): > 100 µM
GI50 (HT29 colon): 43.4 µM
TGI (HT29 colon): > 100 µM
GI50 (IGROV1 ovarian): > 100 µM
TGI (IGROV1 ovarian): > 100 µM
GI50 (COLO 205 colon): > 100 µM
TGI (COLO 205 colon): > 100 µM
GI50 (HCT-116 colon): 29.4 µM
TGI (HCT-116 colon): > 100 µM
GI50 (MDA-MB-435): > 100 µM
TGI (MDA-MB-435): > 100 µM
GI50 (UO-31 renal): 26.9 µM
TGI (UO-31 renal): > 100 µM
GI50 (HL-60(TB) leukemia): 43.4 µM
TGI (HL-60(TB) leukemia): > 100 µM
GI50 (HS 578T breast): 67.8 µM
TGI (HS 578T breast): > 100 µM
GI50 (RPMI-8226 leukemia): 38.4 µM
TGI (RPMI-8226 leukemia): > 100 µM
GI50 (ACHN renal): 55.9 µM
TGI (ACHN renal): > 100 µM
GI50 (SK-MEL-28 melanoma): > 100 µM
TGI (SK-MEL-28 melanoma): > 100 µM
GI50 (T-47D breast): 29.5 µM
TGI (T-47D breast): > 100 µM
GI50 (OVCAR-5 ovarian): 85.9 µM
TGI (OVCAR-5 ovarian): > 100 µM
GI50 (SN12C renal): 81.2 µM
TGI (SN12C renal): > 100 µM
GI50 (NCI-H522 lung): 22.5 µM
TGI (NCI-H522 lung): > 100 µM
GI50 (786-0 renal): 50.8 µM
TGI (786-0 renal): > 100 µM
GI50 (SK-MEL-5 melanoma): 81 µM
TGI (SK-MEL-5 melanoma): > 100 µM
GI50 (SK-OV-3 ovarian): 59.8 µM
TGI (SK-OV-3 ovarian): > 100 µM
GI50 (MDA-MB-231 breast): > 100 µM
TGI (MDA-MB-231 breast): > 100 µM
GI50 (SNB-19 CNS): > 100 µM
TGI (SNB-19 CNS): > 100 µM
GI50 (M14 melanoma): > 100 µM
TGI (M14 melanoma): > 100 µM
GI50 (TK-10 renal): 39.3 µM
TGI (TK-10 renal): > 100 µM
GI50 (OVCAR-4 ovarian): 39.3 µM
TGI (OVCAR-4 ovarian): > 100 µM
GI50 (CCRF-CEM leukemia): 0.535 µM
TGI (CCRF-CEM leukemia): > 100 µM
GI50 (OVCAR-8 ovarian): > 100 µM
TGI (OVCAR-8 ovarian): > 100 µM
GI50 (A498 renal): > 100 µM
TGI (A498 renal): > 100 µM
GI50 (MCF7 breast): 48.9 µM
TGI (MCF7 breast): > 100 µM
GI50 (RXF 393 renal): 12.8 µM
TGI (RXF 393 renal): 77.3 µM
GI50 (UACC-62 melanoma): 43.8 µM
TGI (UACC-62 melanoma): > 100 µM
GI50 (NCI/ADR-RES ovarian): 68.7 µM
TGI (NCI/ADR-RES ovarian): > 100 µM
GI50 (PC-3 prostate): 40.2 µM
TGI (PC-3 prostate): > 100 µM
GI50 (LOX IMVI melanoma): 44.4 µM
TGI (LOX IMVI melanoma): > 100 µM
GI50 (SF-295 CNS): 88 µM
TGI (SF-295 CNS): > 100 µM
GI50 (HOP-62 NSCLC): 88.5 µM
TGI (HOP-62 NSCLC): > 100 µM
GI50 (SK-MEL-2 melanoma): 35.3 µM
TGI (SK-MEL-2 melanoma): > 100 µM
GI50 (EKVX NSCLC): 71.3 µM
TGI (EKVX NSCLC): > 100 µM
GI50 (SF-268 CNS): 64.9 µM
TGI (SF-268 CNS): > 100 µM
GI50 (HOP-92 NSCLC): 1.63 µM
TGI (HOP-92 NSCLC): 74.1 µM
GI50 (NCI-H23 lung): 38.7 µM
TGI (NCI-H23 lung): > 100 µM
GI50 (MALME-3M melanoma): > 100 µM
TGI (MALME-3M melanoma): > 100 µM
GI50 (SR leukemia): 33.6 µM
TGI (SR leukemia): > 100 µM
GI50 (CAKI-1 renal): 41 µM
TGI (CAKI-1 renal): > 100 µM
GI50 (KM12 colon): > 100 µM
TGI (KM12 colon): > 100 µM
GI50 (NCI-H226 lung): 34.2 µM
TGI (NCI-H226 lung): > 100 µM
GI50 (SF-539 CNS): 46 µM
TGI (SF-539 CNS): > 100 µM
GI50 (MOLT-4 leukemia): 27.8 µM
TGI (MOLT-4 leukemia): > 100 µM
GI50 (HCC-2998 colon): 89 µM
TGI (HCC-2998 colon): > 100 µM
GI50 (A549 NSCLC): > 100 µM
TGI (A549 NSCLC): > 100 µM
GI50 (NCI-H460 lung): > 100 µM
TGI (NCI-H460 lung): > 100 µM
GI50 (UACC-257 melanoma): > 100 µM
TGI (UACC-257 melanoma): > 100 µM
